Key:
secreted APP = assay: ELISA for secreted APP in SHSY5Y cells; format: cell-based, human; details: 16 hours
Experimental: (§1) An enzyme-linked immunosorbent assay was developed to detect secreted APP in SHSY5Y cells, a human neuroblastoma cell line. The purpose of the screen was to discover small molecules that inhibit APP protein synthesis in SHSY5Y cells. SHSY5Y cells were plated at 1×10^5 cells/well in […] of DMEM containing 0.5% heat inactivated FBS in 96 well tissue culture treated plates (Falcon no. 35 3072). 144 MES compounds were tested at final concentrations of […] in 0.1% DMSO. Compounds were added and the plates incubated for 16 hours at 37° C./5% CO2. Maxisorp plates (Nunc no. 437958) were coated overnight with […] capture antibody (Biosource 44-100) diluted in Ca^++ and Mg^++ free PBS. Biosource 44-100 is a mouse mAb that recognizes aa 1-100 of human APP. Plates were blocked for 30 minutes with 1 mg/mL BSA in Ca^++ and Mg^++ free PBS. Plates were washed 3× with wash buffer (Ca^++ and Mg^++ free PBS+0.01% Tween20). […] of supernatants and non-cultured medium controls were transferred from culture plates to ELISA plates. Culture plates were reserved for toxicity analysis. Supernatants were incubated for 4 hours at RT on a plate shaker. After supernatant incubation, plates were washed 3×. Primary antibody (Signet Clone 6E-10 biotin) was added at 0.3125 mg/mL and incubated overnight at 4° C. The recognition site of 6E-10 is aa 1-17 of Ab. For detection, a 1:3000 dilution of horseradish peroxidase conjugated streptavidin (Endogen no. N-100) was incubated for 30 minutes. Plates were washed 3×. Enzyme activity was assessed by incubation with […] TMB substrate solution (Moss no. TMB-US) for 20 minutes. The reaction was stopped by the addition of […] 0.18M sulfuric acid. Optical density was read at 450 nm on Wallac Victor2 plate reader. During the first incubation, toxicity was determined using MTS assay, Cell Titer96 AQ reagent (Promega no. G5430). The background values from the non-cultured medium control were subtracted from the sample values and secreted APP levels and toxicity were expressed as % vehicle control. Of the 144 MES compounds screened, 12 inhibited secreted APP as determined by ELISA. The results are depicted in FIGS. 13A-M.
(§2) Using the experimental procedure outlined above, APP secretion and toxicity studies were performed on several other non-carbamate compounds, and the results are shown in Tables 3 and 4. The compound structures are provided in Table 2 in the application, which are identified by their MES number.

SH-SY-5Y Cells = assay: MTS toxicity assay in SHSY5Y cells; format: cell-based, human
Experimental: as §1, §2

SMILES: CC(Br)C(=O)N(Cc1ccccc1)c1ccc(O)cc1 (stereo not drawn) [MES 9306]
- APP Secretion by SH-SY-5Y Cells (secreted APP; Dose 2 uM): 110.75 % vehicle control
- APP Secretion by SH-SY-5Y Cells (secreted APP; Dose 6 uM): 114.55 % vehicle control
- APP Secretion by SH-SY-5Y Cells (secreted APP; Dose 20 uM): 124.8 % vehicle control
- APP Toxicity SH-SY-5Y Cells (MTS assay) (SH-SY-5Y Cells; Dose 2 uM): 102.3 % vehicle control
- APP Toxicity SH-SY-5Y Cells (MTS assay) (SH-SY-5Y Cells; Dose 6 uM): 101.45 % vehicle control
- APP Toxicity SH-SY-5Y Cells (MTS assay) (SH-SY-5Y Cells; Dose 20 uM): 106 % vehicle control

SMILES: COC(=O)CC1(C)C(=O)N(C)c2ccc(OC)cc21 (stereo not drawn) [MES 9309]
- APP Secretion by SH-SY-5Y Cells (secreted APP; Dose 2 uM): 100 % vehicle control
- APP Secretion by SH-SY-5Y Cells (secreted APP; Dose 6 uM): 106.4 % vehicle control
- APP Secretion by SH-SY-5Y Cells (secreted APP; Dose 20 uM): 100.9 % vehicle control
- APP Toxicity SH-SY-5Y Cells (MTS assay) (SH-SY-5Y Cells; Dose 2 uM): 100.85 % vehicle control
- APP Toxicity SH-SY-5Y Cells (MTS assay) (SH-SY-5Y Cells; Dose 6 uM): 98.6 % vehicle control
- APP Toxicity SH-SY-5Y Cells (MTS assay) (SH-SY-5Y Cells; Dose 20 uM): 101.1 % vehicle control

SMILES: COc1ccc2c(c1)[C@@](C)(CCN(C)C)C(=O)N2C [MES 9310]
- APP Secretion by SH-SY-5Y Cells (secreted APP; Dose 2 uM): 104.8 % vehicle control
- APP Secretion by SH-SY-5Y Cells (secreted APP; Dose 6 uM): 97.85 % vehicle control
- APP Secretion by SH-SY-5Y Cells (secreted APP; Dose 20 uM): 98.95 % vehicle control
- APP Toxicity SH-SY-5Y Cells (MTS assay) (SH-SY-5Y Cells; Dose 2 uM): 101.85 % vehicle control
- APP Toxicity SH-SY-5Y Cells (MTS assay) (SH-SY-5Y Cells; Dose 6 uM): 99.9 % vehicle control
- APP Toxicity SH-SY-5Y Cells (MTS assay) (SH-SY-5Y Cells; Dose 20 uM): 97.7 % vehicle control

SMILES: CN(C)CC[C@]1(C)C(=O)N(C)c2ccc(O)cc21 [MES 9311]
- APP Secretion by SH-SY-5Y Cells (secreted APP; Dose 2 uM): 102.45 % vehicle control
- APP Secretion by SH-SY-5Y Cells (secreted APP; Dose 6 uM): 103.05 % vehicle control
- APP Secretion by SH-SY-5Y Cells (secreted APP; Dose 20 uM): 102.7 % vehicle control
- APP Toxicity SH-SY-5Y Cells (MTS assay) (SH-SY-5Y Cells; Dose 2 uM): 101.1 % vehicle control
- APP Toxicity SH-SY-5Y Cells (MTS assay) (SH-SY-5Y Cells; Dose 6 uM): 101.25 % vehicle control
- APP Toxicity SH-SY-5Y Cells (MTS assay) (SH-SY-5Y Cells; Dose 20 uM): 99.55 % vehicle control

SMILES: CN1C(=O)C(=O)c2ccccc21 [MES 9312]
- APP Secretion by SH-SY-5Y Cells (secreted APP; Dose 2 uM): 105.4 % vehicle control
- APP Secretion by SH-SY-5Y Cells (secreted APP; Dose 6 uM): 101.7 % vehicle control
- APP Secretion by SH-SY-5Y Cells (secreted APP; Dose 20 uM): 96.65 % vehicle control
- APP Toxicity SH-SY-5Y Cells (MTS assay) (SH-SY-5Y Cells; Dose 2 uM): 99.95 % vehicle control
- APP Toxicity SH-SY-5Y Cells (MTS assay) (SH-SY-5Y Cells; Dose 6 uM): 103.85 % vehicle control
- APP Toxicity SH-SY-5Y Cells (MTS assay) (SH-SY-5Y Cells; Dose 20 uM): 106.95 % vehicle control

SMILES: COc1ccc2c(c1)[C@](C)(CCN)C(=O)N2C.Cl [MES 9314]
- APP Secretion by SH-SY-5Y Cells (secreted APP; Dose 2 uM): 111.25 % vehicle control
- APP Secretion by SH-SY-5Y Cells (secreted APP; Dose 6 uM): 99.15 % vehicle control
- APP Secretion by SH-SY-5Y Cells (secreted APP; Dose 20 uM): 109.4 % vehicle control
- APP Toxicity SH-SY-5Y Cells (MTS assay) (SH-SY-5Y Cells; Dose 2 uM): 100.15 % vehicle control
- APP Toxicity SH-SY-5Y Cells (MTS assay) (SH-SY-5Y Cells; Dose 6 uM): 100.85 % vehicle control
- APP Toxicity SH-SY-5Y Cells (MTS assay) (SH-SY-5Y Cells; Dose 20 uM): 100.6 % vehicle control

SMILES: COc1ccc2[nH]c3c(c2c1)CCN(C)C3 [MES 9316]
- APP Secretion by SH-SY-5Y Cells (secreted APP; Dose 2 uM): 104.15 % vehicle control
- APP Secretion by SH-SY-5Y Cells (secreted APP; Dose 6 uM): 98.45 % vehicle control
- APP Secretion by SH-SY-5Y Cells (secreted APP; Dose 20 uM): 102 % vehicle control
- APP Toxicity SH-SY-5Y Cells (MTS assay) (SH-SY-5Y Cells; Dose 2 uM): 99.15 % vehicle control
- APP Toxicity SH-SY-5Y Cells (MTS assay) (SH-SY-5Y Cells; Dose 6 uM): 98.05 % vehicle control
- APP Toxicity SH-SY-5Y Cells (MTS assay) (SH-SY-5Y Cells; Dose 20 uM): 98.75 % vehicle control

SMILES: COC(=O)NCCC1C(=O)N(Cc2ccccc2)c2ccc(OC)cc21 (stereo not drawn) [MES 9317]
- APP Secretion by SH-SY-5Y Cells (secreted APP; Dose 2 uM): 99.87 % vehicle control
- APP Secretion by SH-SY-5Y Cells (secreted APP; Dose 6 uM): 112.3 % vehicle control
- APP Secretion by SH-SY-5Y Cells (secreted APP; Dose 20 uM): 122 % vehicle control
- APP Toxicity SH-SY-5Y Cells (MTS assay) (SH-SY-5Y Cells; Dose 2 uM): 97.27 % vehicle control
- APP Toxicity SH-SY-5Y Cells (MTS assay) (SH-SY-5Y Cells; Dose 6 uM): 97.23 % vehicle control
- APP Toxicity SH-SY-5Y Cells (MTS assay) (SH-SY-5Y Cells; Dose 20 uM): 93.5 % vehicle control

SMILES: COc1ccc2c(c1)[C@]1(C)CCOC1N2C (stereo partly drawn) [MES 9318]
- APP Secretion by SH-SY-5Y Cells (secreted APP; Dose 2 uM): 104.05 % vehicle control
- APP Secretion by SH-SY-5Y Cells (secreted APP; Dose 6 uM): 103.4 % vehicle control
- APP Secretion by SH-SY-5Y Cells (secreted APP; Dose 20 uM): 108.75 % vehicle control
- APP Toxicity SH-SY-5Y Cells (MTS assay) (SH-SY-5Y Cells; Dose 2 uM): 96.2 % vehicle control
- APP Toxicity SH-SY-5Y Cells (MTS assay) (SH-SY-5Y Cells; Dose 6 uM): 96.45 % vehicle control
- APP Toxicity SH-SY-5Y Cells (MTS assay) (SH-SY-5Y Cells; Dose 20 uM): 96.05 % vehicle control
